These results are taken from patent USRE32098E (Research and Education Institute, Inc., priority 1978, dated 1986).

Where a name gives a salt, the structure may show the parent alone. Read-outs that look alike come from different tables or passages of the source.

For series [1], the target named is T1, TBG (Homo sapiens, UniProt P05543).
T1 construct: from tissue; host or cells: serum
T1 sequence (P05543 21-415): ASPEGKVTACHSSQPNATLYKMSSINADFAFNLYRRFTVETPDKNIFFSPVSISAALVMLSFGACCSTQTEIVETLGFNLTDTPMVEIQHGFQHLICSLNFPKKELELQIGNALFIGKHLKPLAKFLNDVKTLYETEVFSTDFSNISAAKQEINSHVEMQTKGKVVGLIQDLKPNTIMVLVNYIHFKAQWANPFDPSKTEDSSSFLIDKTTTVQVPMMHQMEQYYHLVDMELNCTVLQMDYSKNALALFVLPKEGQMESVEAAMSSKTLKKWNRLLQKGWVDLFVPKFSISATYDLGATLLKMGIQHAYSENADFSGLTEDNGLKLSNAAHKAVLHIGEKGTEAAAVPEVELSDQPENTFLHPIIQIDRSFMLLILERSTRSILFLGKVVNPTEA
As to the kind of experiment: Displacement of radioactive T3 from TBG. Type of series: binding.

Series [2] has as its target T2, TBG (thyroxine-binding globulin) (Homo sapiens, UniProt P05543).
T2 construct: from tissue; host or cells: human serum, diluted 1/32
T2 sequence (P05543 21-415): T1 sequence (P05543 21-415)
As to the kind of experiment: Displacement of radioactive T4 from TBG in a CPBA system. Also noted: AMOUNT T4 DISPLACED FROM TBG: unit not given here.

For series [3], the system named is thyroxine binding prealbumin (TBPA). As to the kind of experiment: T4 binding by prealbumin.
In series [4] the test system is proteins such as thyroxine-binding globulin (TBG), prealbumin (TBPA) and albumin. The settings on record: normal human serum; cited from earlier work.
The next series deals with sheep serum TBG. As to the kind of experiment: Adequacy of the amount of ANS in T3 RIA: T3-125I bound to T3-binding antibody in presence of sheep serum and ANS versus plain buffer. The settings on record: 200 ug ANS.
Series [5] relates to T3-binding sites on the rabbit antiserum. The series is described as follows: Affinity for T3-binding sites on the rabbit antiserum.
The test system of series [6] is TBG. As to the kind of experiment: T4 RIA standard curves in barbital buffer and in presence of T4-free serum (FIG. 2). The format is binding. To be noted: 25 ul T4-free serum.
The nature of another series: Solubility at pH of RIA. Type of series: physicochemical.
The target in series [7] is T1, TBG. As to the kind of experiment: Maximal T4-binding capacity of TBG in serum (method of Inada and Sterling). The settings on record: 7 euthyroid subjects with high serum TBG.

Turning to `CC(=O)NCCOC(=O)C(Oc1cccc(C(F)(F)F)c1)c1ccc(Cl)cc1` (centres unmarked) [Halofenate], the “AMOUNT T3 DISPLACED FROM TBG” value at TBG [1] (10 ug blocking agent) was determined as 5.2 ng. Moreover, the “AMOUNT T4 DISPLACED FROM TBG” value in series [2] (100 ug blocking agent) stood at 8.4.

Regarding `C[CH2][Hg][S]c1ccccc1C(=O)[O-].[Na+]` [Thimerosal], on TBG [1], the “AMOUNT T3 DISPLACED FROM TBG” value was 8.0 ng. Besides, the “AMOUNT T4 DISPLACED FROM TBG” value in series [2] is listed as 8.4.

As for `O=S(=O)(O)c1cccc2ccccc12` [αNapthalene Sulfonic Acid], the “AMOUNT T3 DISPLACED FROM TBG” value at TBG [1] (100 ug blocking agent) was 7.0 ng. The “AMOUNT T4 DISPLACED FROM TBG” value in [2] (100 ug blocking agent) was determined as 3.0.

`CN1C(=O)CN=C(c2ccccc2)c2cc(Cl)ccc21` [Diazepam]: the “AMOUNT T3 DISPLACED FROM TBG” value at TBG [1] is on record as 7.0 ng. Moreover, the “AMOUNT T4 DISPLACED FROM TBG” value in series [2] came out at 6.3.

Regarding `O=S(=O)(O)c1ccc2cc(N=Nc3ccc(Nc4ccccc4)c4ccccc34)c(S(=O)(=O)O)cc2c1` [ANNDS, 3-(4-anilino-1-napthylazo) 2,7-napthalene disulfonic acid], on TBG [1] (10 ug blocking agent), the “AMOUNT T3 DISPLACED FROM TBG” value came to 10.4 ng. Also, in series [2] (50 ug blocking agent), the “AMOUNT T4 DISPLACED FROM TBG” value was more than 20.

As to `O=C([O-])c1ccccc1O.[Na+]` [Sodium Salicylate], in series [3], the “effect on T4 binding by prealbumin” value is given as “affected”. For the same molecule, the “AMOUNT T3 DISPLACED FROM TBG” value on TBG [1] is 11.0 ng. For the same molecule, in series [2], the “AMOUNT T4 DISPLACED FROM TBG” value was found to be 6.1.

For `O=C1NC(=O)C(c2ccccc2)(c2ccccc2)N1` [Dilantin], in series [2] (100 ug blocking agent), the “AMOUNT T4 DISPLACED FROM TBG” value came out at 5.7.

Take `CN(C)CCCN1c2ccccc2Sc2ccc(Cl)cc21` [Chlorpromazine HCl]: the “AMOUNT T3 DISPLACED FROM TBG” value at TBG [1] is on record as 6.6 ng. The “AMOUNT T4 DISPLACED FROM TBG” value in series [2] was determined as 5.6.

Take `CN(C)CCC=C1c2ccccc2COc2ccccc21` [Doxepin HCl]: on TBG [1], the “AMOUNT T3 DISPLACED FROM TBG” value was determined as 10.8 ng. Further, the “AMOUNT T4 DISPLACED FROM TBG” value in series [2] stood at 8.2.

Turning to `CN1CCN(CCCN2c3ccccc3Sc3ccc(Cl)cc32)CC1` [Prochlorperazine], at TBG [1], the “AMOUNT T3 DISPLACED FROM TBG” value is given as 7.0 ng. Besides, in series [2], the “AMOUNT T4 DISPLACED FROM TBG” value was determined as 7.2.

On to `N[C@@H](Cc1cc(I)c(Oc2ccc(O)c(I)c2)c(I)c1)C(=O)O` [T3, triiodothyronine], for which the “present as unbound (dialyzable or free) hormone” value in series [4] is recorded as 0.3%.

With `O=C1NC(=S)NC1(c1ccccc1)c1ccccc1` [5,5 diphenyl-2 thiohydantoin], the “AMOUNT T3 DISPLACED FROM TBG” value at TBG [1] (10 ug blocking agent) was 7.6 ng. Besides, the “AMOUNT T4 DISPLACED FROM TBG” value in series [2] (100 ug blocking agent) turned out to be 6.1.

As to `O=S(=O)(O)c1cccc2cccc(Nc3ccccc3)c12` [ANS, 8-anilino-1-napthalene-sulfonic acid], the “effect on T4 binding by prealbumin” value in [3] is reported as “affected”. Moreover, at TBG [1], the “AMOUNT T3 DISPLACED FROM TBG” value worked out at 11.2 ng, the “T3 displaced from TBG” value is 11.2 nanograms (ng), the “concentration of T3 in serum up to which all T3 may be displaced” value is reported as not above 88 ug T3 per 100 ml and the “displacement of T3 bound to TBG” value was “displaces nearly all T3 bound to TBG”. At TBG [1], the “prevention of binding of radioactive T3 to TBG” value was “prevents completely the binding of radioactive T3 to TBG”. In addition, the “neutralization of the inhibiting effect of sheep serum TBG” value in the series on sheep serum TBG is listed as “almost complete neutralization”. Moreover, the “radioactivity bound to antibody relative to that in plain buffer” value with sheep serum TBG (with sheep serum, no stable T3) is listed as 95-98%. Also, the “affinity for T3-binding sites on the rabbit antiserum” value in series [5] is recorded as “negligible affinity”. Also, the “blocking of TBG in serum” value with TBG [6] is recorded as “TBG in the serum was adequately blocked”. For the same molecule, in [2], the “AMOUNT T4 DISPLACED FROM TBG” value is 18, the “T4 displaced from TBG” value was 18 nanograms (ng) and the “concentration of T4 in serum up to which all T4 is displaced” value is not above 72 ug per 100 ml. Moreover, the “solubility compared with Dilantin and tetrachlorthyronine” value in the series “Solubility at pH of RIA” is listed as “better solubility at pH of RIA”.

B1: TBG: thyroxine-binding globulin, serum protein binding thyroid hormones (protein, UniProt P05543 21-415, looked up)
Thyroxine-binding globulin: T1 sequence (P05543 21-415)
For the molecule B1, in the series with TBG [7], the “maximal T4-binding capacity of TBG (mean)” value turned out to be 46.9 ug per 100 ml.
